Measurements as given in patent US6605634B2 (Amgen, Inc., priority 1996, dated 2003).
pIC50: −log10 of the molar value.

These compounds were tested on production of tumor necrosis factor (TNF) by monocytes activated with bacterial lipopolysaccharide (LPS) (assay: Lipopolysaccharide-activated Monocyte TNF Production Assay). Conditions: Homo sapiens, TNF in culture supernatants by ELISA, read-out: IC50 (concentration of test compounds causing a 50% reduction in TNF production).
Type: cell-based
Description: Lipopolysaccharide-activated Monocyte TNF Production Assay
Test compounds were evaluated in vitro for the ability to inhibit the production of tumor necrosis factor (TNF) by monocytes activated with bacterial lipopolysaccharide (LPS). Fresh residual source leukocytes (a byproduct of plateletpheresis) were obtained from the local blood bank and peripheral blood mononuclear cells (PBMCs) were isolated by density gradient centrifugation on Ficol-Paque Plus (Pharmacia). PBMCs were suspended at 2×10^6/ml in DMEM supplemented to contain 2% FCS (10 mM), 0.3 mg/ml glutamate, 100 U/ml penicillin G and […] streptomycin sulfate (complete media). Cells were plated into Falcon flatbottom 96 well culture plates (200 μl/well) and cultured overnight at 37° C. and 6% CO2. Nonadherent cells were removed by washing with 200 μl/well of fresh medium. Wells containing adherent cells (˜70% monocytes) were replenished with 100 μl of fresh medium.
Preparation of Test Compound Stock Solutions
Test compounds were dissolved in […]. Compound stock solutions were prepared to an initial concentration of […]. Stocks were diluted initially to 20-200 μM in complete media. Nine two-fold serial dilutions of each compound were then prepared in complete medium.
Treatment of Cells with Test Compounds and Activation of TNF Production with Lipopolysaccharide
One hundred microliters of each test compound dilution were added to microtiter wells containing adherent monocytes and 100 μl complete medium. Monocytes were cultured with test compounds for 60 min at which time 25 μl of complete medium containing 30 ng/ml lipopolysaccharide from E. coli K532 were added to each well. Cells were cultured an additional 4 hrs. Culture supernatants were then removed and TNF present in the supernatants was quantified using an ELISA.
Flat bottom 96 well Coming High Binding ELISA plates were coated overnight (4° C.) with 150 μL/well of 3 μg/ml murine anti-human TNFa MAb (R&D Systems #MAB210). Wells were then blocked 1 h at room temperature with 200 μL/well of CaCl2-free ELISA buffer supplemented to contain 20 mg/ml BSA (standard ELISA buffer: […], 150 mM NaCl, 2 mM CaCl2, 0.15 mM thimerosal, pH 7.4). Plates were washed and replenished with 100 μl of test supernatants (diluted 1:3) or standards. Standards consisted of eleven 1.5-fold serial dilutions from a stock of 1 ng/ml recombinant human TNF (R&D Systems). Plates were incubated at room temperature for 1 h on orbital shaker (300 rpm), washed and replenished with 100 μl/well of 0.5 jig/ml goat anti-human TNFa (R&D systems #AB-210-NA) biotinylated at a 4:1 ratio. Plates were incubate for 40 min, washed and replenished with 100 μl/well of alkaline phosphatase-conjugated streptavidin (Jackson ImmunoResearch #016-050-084) at 0.02 μg/ml. Plates were incubated 30 min, washed and replenished with 200 μl well of 1 mg/ml of p-nitrophenyl phosphate. After 30 min, plates were read at 405 nm on a Vmax plate reader.
Standard curve data were fit to a second order polynomial and unknown TNF-a concentrations determined from their OD by solving this equation for concentration. TNF concentrations were then plotted Vs test compound concentration using a second order polynomial. This equation was then used to calculate the concentration of test compounds causing a 50% reduction in TNF production.

SMILES	pIC50
Fc1ccc(-c2[nH]c3nccnc3c2-c2ccncc2)cc1 [Compound 99, 3-(4-pyridyl)-2-(4-fluorophenyl)-4,7-diaza-indole]	> 4.70
CC(C)(C)OC(=O)N1CCC[C@H]1C(=O)Nc1ccc2c(-c3ccncc3)c(-c3ccc(F)cc3)[nH]c2n1 [Compound 100, 6-(2′-N-t-Butoxycarbonyl-L-prolylamino)-3-(4-pyridyl)-2-(4-fluorophenyl)-7-aza-indole]	> 4.70
O=C(Nc1ccc2c(-c3ccncc3)c(-c3ccc(F)cc3)[nH]c2n1)[C@@H]1CCCN1 [Compound 101, 6-(2′-L-prolylamino)-3-(4-pyridyl)-2-(4-fluorophenyl)-7-aza-indole]	> 4.70
C[C@@H](C(=O)Nc1ccc2c(-c3ccncc3)c(-c3ccc(F)cc3)[nH]c2n1)N(C)C [Compound 102, 6-(2S′-dimethylamino-1′-oxo-propylamino)-3-(4-pyridyl)-2-(4-fluorophenyl)-7-aza-indole]	> 6.00
CN(C)CC(=O)Nc1ccc2c(-c3ccncc3)c(-c3ccc(F)cc3)[nH]c2n1 [Compound 103, 6-(2′-Dimethylamino-1′-oxo-ethylamino)-3-(4-pyridyl)-2-(4-fluorophenyl)-7-aza-indole]	> 4.70
CN(CC(=O)Nc1ccc2c(-c3ccncc3)c(-c3ccc(F)cc3)[nH]c2n1)C(=O)OC(C)(C)C [Compound 104, 6-(2′-N-methyl-t-butoxycarbonylamino-1′-oxo-ethylamino)-3-(4-pyridyl)-2-(4-fluorophenyl)-7-aza-indole]	> 6.00
CNCC(=O)Nc1ccc2c(-c3ccncc3)c(-c3ccc(F)cc3)[nH]c2n1 [Compound 105, 6-(2′-N-methyl-amino-1′-oxo-ethylamino)-3-(4-pyridyl)-2-(4-fluorophenyl)-7-aza-indole]	> 6.00
CC(C)(C)OC(=O)N1CCC(C(=O)Nc2ccc3c(-c4ccncc4)c(-c4ccc(F)cc4)[nH]c3n2)CC1 [Compound 106, 6-(4′-N-t-butoxycarbonylisonipecotylamino)-3-(4-pyridyl)-2-(4-fluorophenyl)-7-aza-indole]	> 6.00
O=C(Nc1ccc2c(-c3ccncc3)c(-c3ccc(F)cc3)[nH]c2n1)C1CCNCC1 [Compound 107, 6-(4′-isonipecotylamino)-3-(4-pyridyl)-2-(4-fluorophenyl)-7-aza-indole]	> 6.00
C[S+]([O-])CC[C@H](NC(=O)OC(C)(C)C)C(=O)Nc1ccc2c(-c3ccncc3)c(-c3ccc(F)cc3)[nH]c2n1 (stereo partly drawn) [Compound 108, 6-(4′-methylsulfoxo-1′-oxo-2′S-t-butoxycarbonylaminobutylamino)-3-(4-pyridyl)-2-(4-fluorophenyl)-7-aza-indole]	> 4.70
C[S+]([O-])CC[C@H](N)C(=O)Nc1ccc2c(-c3ccncc3)c(-c3ccc(F)cc3)[nH]c2n1 (stereo partly drawn) [Compound 109, 6-(4′-methylsulfoxo-1′-oxo-2′S-aminobutylamino)-3-(4-pyridyl)-2-(4-fluorophenyl)-7-aza-indole]	> 4.70
CC(C)(C)OC(=O)N[C@@H](Cc1cccnc1)C(=O)Nc1ccc2c(-c3ccncc3)c(-c3ccc(F)cc3)[nH]c2n1 [Compound 110, 6-(3′-(3-pyridyl)-1′-oxo-2′S-t-butoxycarbonylaminopropylamino)-3-(4-pyridyl)-2-(4-fluorophenyl)-7-aza-indole]	> 4.70
N[C@@H](Cc1cccnc1)C(=O)Nc1ccc2c(-c3ccncc3)c(-c3ccc(F)cc3)[nH]c2n1 [Compound 111, 6-(3′-(3-pyridyl)-1′-oxo-2′S-aminopropylamino)-3-(4-pyridyl)-2-(4-fluorophenyl)-7-aza-indole]	> 4.70
CC(C)(C)OC(=O)N[C@@H](Cc1cncn1C(=O)OC(C)(C)C)C(=O)Nc1ccc2c(-c3ccncc3)c(-c3ccc(F)cc3)[nH]c2n1 [Compound 112]	> 4.70
N[C@@H](Cc1cnc[nH]1)C(=O)Nc1ccc2c(-c3ccncc3)c(-c3ccc(F)cc3)[nH]c2n1 [Compound 113, 6-(L-histidinylamino)-3-(4-pyridyl)-2-(4-fluorophenyl)-7-aza-indole]	> 4.70
O=C(Nc1ccc2c(-c3ccncc3)c(-c3ccc(F)cc3)[nH]c2n1)[C@@H]1Cc2ccccc2CN1 [Compound 115, 6-(3(S) 1′,2′,3′,4′-tetrahydro-3′-isoguinolinyloxoamino)-3-(4-pyridyl)-2-(4-fluorophenyl)-7-aza-indole]	> 4.70
N[C@@H](C(=O)Nc1ccc2c(-c3ccncc3)c(-c3ccc(F)cc3)[nH]c2n1)c1ccccc1 [Compound 117, 6-(2′-phenyl-1′-oxo-2′R-aminoethylamino)-3-(4-pyridyl)-2-(4-fluorophenyl)-7-aza-indole]	> 6.00
N[C@H](C(=O)Nc1ccc2c(-c3ccncc3)c(-c3ccc(F)cc3)[nH]c2n1)c1ccccc1 [Compound 119, 6-(2′-phenyl-1′-oxo-2′S-aminoethylamino)-3-(4-pyridyl)-2-(4-fluorophenyl)-7-aza-indole]	> 6.00
CN[C@@H](C(=O)Nc1ccc2c(-c3ccncc3)c(-c3ccc(F)cc3)[nH]c2n1)c1ccccc1 [Compound 121, 6-(2′-phenyl-1′-oxo-2′R-N-methylaminoethylamino)-3-(4-pyridyl)-2-(4-fluorophenyl)-7-aza-indole]	> 6.00
C[C@H](N)C(=O)Nc1ccc2c(-c3ccncc3)c(-c3ccc(F)cc3)[nH]c2n1 [Compound 123, 6-(1′-oxo-2′S-aminopropylamino)-3-(4-pyridyl)-2-(4-fluorophenyl)-7-aza-indole]	> 6.00
N[C@@H](Cc1ccccc1)C(=O)Nc1ccc2c(-c3ccncc3)c(-c3ccc(F)cc3)[nH]c2n1 [Compound 125, 6-(3′-phenyl-1′-oxo-2′-(L)-aminopropylamino)-3-(4-pyridyl)-2-(4-fluorophenyl)-7-aza-indole]	> 4.70
CN[C@@H](C)C(=O)Nc1ccc2c(-c3ccncc3)c(-c3ccc(F)cc3)[nH]c2n1 [Compound 127, 6-(1′-oxo-2′S-N-methylaminopropylamino)-3-(4-pyridyl)-2-(4-fluorophenyl)-7-aza-indole]	> 6.00
CN[C@@H](CC(C)C)C(=O)Nc1ccc2c(-c3ccncc3)c(-c3ccc(F)cc3)[nH]c2n1 [Compound 129, 6-(1′-oxo-2′S-N-methyl-4-methyl-2-aminopentylamino)-3-(4-pyridyl)-2-(4-fluorophenyl)-7-aza-indole]	> 4.70
C[C@@H](N)C(=O)Nc1ccc2c(-c3ccncc3)c(-c3ccc(F)cc3)[nH]c2n1 [Compound 131, 6-(1′-oxo-2′R-aminopropylamino)-3-(4-pyridyl)-2-(4-fluorophenyl)-7-aza-indole]	> 6.00
N[C@@H](Cc1cccs1)C(=O)Nc1ccc2c(-c3ccncc3)c(-c3ccc(F)cc3)[nH]c2n1 [Compound 133, 6-(3′-(2-thienyl)-1′-oxo-2′-(L)-aminopropylamino)-3-(4-pyridyl)-2-(4-fluorophenyl)-7-aza-indole]	> 4.70
[N-]=[N+]=Nc1ccc(C[C@H](N)C(=O)Nc2ccc3c(-c4ccncc4)c(-c4ccc(F)cc4)[nH]c3n2)cc1 [Compound 135, 6-(3′-(4-azidophenyl)-1′-oxo-2′S-aminopropylamino)-3-(4-pyridyl)-2-(4-fluorophenyl)-7-aza-indole]	> 4.70
N[C@@H](Cc1csc2ccccc12)C(=O)Nc1ccc2c(-c3ccncc3)c(-c3ccc(F)cc3)[nH]c2n1 [Compound 137, 6-(3′-(3-benzothienyl)-1′-oxo-2′S-aminopropylamino)-3-(4-pyridyl)-2-(4-fluorophenyl)-7-aza-indole]	> 4.70
